Measured values from patent US6479493B1, “Methods for treatment of type I diabetes” (Cell Pathways, Inc., priority 2001, dated 2002).
Structures can show the parent of a compound that is named as a salt.

Key:
PDE 5 = PDE 5 (Homo sapiens, UniProt O76074); test: competitive binding (with cGMP) to PDE5
[1] = system: TNF-α secreted by TPA-induced U937 cells; test: TNF-α immunoassay on media of TPA-treated U937 cells; format: cell-based; conditions: cell culture media (FIG. 12)
Protocol: One function of macrophages is to modulate the activity of other inflammatory cells through various cytokine molecules.
TNF-α levels in the cell culture media were determined by using the TNF-α Immunoassay from R&D Systems (Cat. #DTA50) according to the manufacturer's protocol.

rats [2] = test: 28-day study in rats; format: in vivo, rat
Protocol: A 28-day study in rats was also carried out at 0, 50, 500 and 2000 mg/kg/day.

PDE4 = test: PDE inhibition, similar protocols; format: biochemical
human patients = test: single, escalating dose human clinical safety trial; format: in vivo; conditions: humans, oral, 50, 100, 200 and 400 mg BID
From the text: One skilled in the art should recognize that any of the side effects observed in these safety studies occurred at very high doses, in excess of recommended human doses and are extremely minimal compared to what one would expect at similar doses of other proposed therapies.

dogs [3] = test: 91-day oral study in dogs; format: in vivo, dog
dogs [4] = test: acute / seven-dose toxicity in dogs; conditions: dog, in vivo
Protocol: Therefore, these dogs were subsequently administered seven consecutive doses of 1000 mg/kg/day.

rats [5] = test: 91-day long-term safety assessment study in rats; format: in vivo, rat
From the text: These changes were not associated with any gross clinical abnormality.

rats [6] = test: acute toxicity study in rats; conditions: rat, in vivo
rats [7] = test: seven-day dose-range finding study in rats; format: in vivo, rat; conditions: 7 days
U937 cells = test: apoptosis induction of U937 cells, active caspase 3 indirect immunofluorescence; format: cell-based; conditions: 1 μM, 24 hours
Protocol: U937 cells (from ATCC Rockville, Md.) were grown in RPMI media supplemented with 5% FCS, glutamine, antibiotic/antimycotic and sodium pyruvate. Total RNA was isolated from two U937 cultures, one treated with 5 nM TPA for 48 hours and one grown in normal media as listed above, using the Rouche High Pure RNA Isolation Kit (cat #1 828 665) as per manufacturers protocol. cDNA was then synthesized from the total RNA using GibcoBRL SuperscriptII (Cat #18064-022) reverse transcriptase as per manufacturers protocol. The resulting cDNA was used as a template for RT-PCR reactions using primer sets specific for PDE2 (forward: […], reverse: […]) or PDE5 (forward: […], reverse: […]). mRNA for PDE2 and 5 were both present in the untreated U937 cells. Upon treatment with TPA, the relative amounts of PDE2 mRNA increased 5 fold. Therefore, U937 cells treated with TPA and driven to differentiate into an activated macrophage like state have elevated levels of PDE2 mRNA (see FIG. 1).
The presence of PDE2 and PDE5 protein within U937 cells was confirmed by indirect immunofluorescence (IIF). U937 cells were cultured as above. Two U937 cultures, one grown in the presence of 5 nM TPA for 48 hours and one grown in normal media were processed. All cultures were collected by centrifugation (Shandon Cytospin, 2 minutes @600 rpm) onto poly-L lysine-coated slides and immediately fixed in fresh 3% paraformaldehyde buffered in PBS for 10 minutes. Adherent cultures were grown on coverslips and fixed as above. Cells were permeablized in 0.2% Triton-100 for 2 minutes. Slides were blocked with blocking buffer (5% goat serum, 5% glycerol, 1% gelatin from cold water fish skin and 0.04% NaN3 in PBS) for 1 hour at room temperature.
Slides were then incubated for 1 hour at 37° C. in a humid chamber with antibodies specific for PDE2 (generated in a sheep against the peptide […]) or PDE5 (generated in sheep against the peptide […]). […]
The level of apoptosis in U937 cells was quantified by scoring 500 consecutive cells for the presence of active caspase 3. […]

PDE1 = test: PDE inhibition, similar protocols; format: biochemical
[8] = 28 days, 50, 500 and 2000 mg/kg/day
[9] = 91 days, highest dose group (300 mg/kg/day)

CC1=C(CC(=O)NCc2ccccc2)c2cc(F)ccc2/C1=C\c1ccncc1 [Example 38, (Z)-5-Fluoro-2-methyl-(4-pyridylidene)-3-(N-benzyl)indenylacetamide Hydrochloride]
competitive (with cGMP) binding to PDE 5 (PDE 5): does competitively (with cGMP) bind to PDE 5 | level of TNF-α secreted [1]: significantly reduced | macroscopic tissue changes at necropsy (rats [2]; 28 days): No macroscopic tissue changes | liver weights (rats [2]; 28 days, 2000 mg/kg/day): statistically significant increase in liver weights | thyroid weights (rats [2]; 28 days, 2000 mg/kg/day): statistically significant increases in thyroid weights | body weight changes, ophthalmoscopic examinations, hematological and blood chemistry values, urinalysis (rats [2]; [8]): unremarkable | clinical observations (rats [2]; [8]): no abnormal clinical observations | histopathological evaluation of tissues (rats [2]; 28 days, generally a small number of animals at 2000 mg/kg/day): traces of follicular cell hypertrophy, increased numbers of mitotic figures (suggestive of possible cell proliferation) in the thyroid gland and mild centrilobular hypertrophy in the liver | liver and thyroid weight increases at the lower doses (rats [2]; 28 days, lower doses (50, 500 mg/kg/day)): not statistically significant | IC50 (PDE4): 6 µM | side effects (human patients): no significant side effects at any dose | feces observation (dogs [3]; 91 days, 150 and 300 mg/kg/day): Orange discoloration of the feces | microscopic alterations (liver) (dogs [3]; 91 days, highest dose group): no microscopic alterations | body weights (dogs [3]; [9]): Slightly lowered body weights | liver weights (dogs [3]; [9]): increased liver weights | route of elimination (suggested by feces colour) (dogs [3]; oral, 91 days): most of Compound 38 was being eliminated via the feces | toxicological effects overall (dogs [3]; oral, 91 days, 50, 150 and 300 mg/kg/day): no toxicological effects | signs of toxicity (dogs [4]; 1000 mg/kg): no signs of toxicity | signs of drug-related effects (dogs [4]; 1000 mg/kg/day): At no time in either dosing phase were any obvious signs of drug-related effects observed | clinical biochemistry and hematology (rats [5]; 91 days): no changes in clinical biochemistry and hematology were evident | microscopic finding, follicular cells (rats [5]; 91 days, 500 mg/kg/day): follicular cell hypertrophy | microscopic finding, kidneys (rats [5]; 91 days, 200 and 500 mg/kg/day): increase in accumulation of hyalin droplets in the kidneys | microscopic finding, liver (rats [5]; 91 days, 200 and 500 mg/kg/day): slight hepatocellular hypertrophy | liver and thyroid/parathyroid weights (rats [5]; 91 days, males and females at 200 and 500 mg/kg/day): dose-related trend to increased liver and thyroid/parathyroid weights | toxicological effects overall (rats [5]; oral, 91 days, 50, 200 and 500 mg/kg/day): did not produce any major toxicological effects | body weight gain (rats [6]; ip, 1000 mg/kg): reduced body weight gain | necropsy findings (rats [6]; ip, 1000 mg/kg): mesenteric adhesions seen in some animals | body weight gains (rats [6]; po, 2000 mg/kg): slightly reduced | signs of toxicity (rats [7]; 50 mg/kg/day): no observable signs of toxicity | treatment-related effects (rats [7]; 500 mg/kg/day): limited to an increase in absolute and relative liver weights in female rats | treatment-related effects (rats [7]; 2000 mg/kg/day): labored breathing and/or abnormal respiratory sounds, decreased weights gains and food consumption in male rats, and increased liver weights in female rats | hematology, blood chemistry, microscopic pathology (rats [7]; any dose level (50, 500, 2000 mg/kg/day)): No hematological or blood chemistry changes nor any microscopic pathology changes | apoptosis by active caspase 3 image (FIG. 8) (U937 cells): undergoing apoptosis as reflected by the presence of active caspase 3 | IC50 (PDE1): 3 µM
